Measurements as given in article PMC8302598, “Rapid discovery of self-assembling peptides with one-bead one-compound peptide library” (Nature Communications, 2021).

Tests used:
[1] = Fluorescent-activation screening assay on OBOC beads (NBD); type: physicochemical; conditions: peptide N-terminally capped with NBD on TentaGel S beads, in water, fluorescence microscope
Description: It is well known that Aβ16–20 peptide sequence KLVFF can self-assemble into nanofibers in water. We, therefore, chose it as a model peptide to test our screening strategy and used KAAGG as the non-assembling negative control. These control peptides, N-terminally capped with NBD were synthesized with standard Fmoc-chemistry, and TentaGel S resin beads as solid support but without any cleavable linker. After side-chain deprotection, the beads were thoroughly washed with DMF, which was replaced stepwise with water or methanol and then examined under a fluorescent microscope. […] This is expected as the hydrophobicity-sensitive fluorescence dye NBD would fluoresce brightly under hydrophobic condition, in this case, methanol. In water, we expect fluorescent signal emitted from non-sequestered NBD to diminish, unless it is buried inside a hydrophobic environment such as within peptide aggregates or β-sheets formed by KLVFF peptides.
Once the screening method has been validated with our model KLVFF peptide, a totally random pentapeptide library with 19[5] permutations (cysteine was omitted from the library) was constructed using our previously published methods (Supplementary Fig. 3)[23]. Again, TentaGel S resin (loading of 0.31 mmol/g) was used as the solid support. The pentapeptides in the library were N-terminally capped with NBD. […] The positive bead with an intense fluorescent signal (pointed with a solid arrow) was noted. The rest of the beads were considered negative or weak positive beads. From a total of approximately 100 000 beads screened, we selected a total of eight strongest fluorescent positive beads and four dark beads as negative beads. The peptides were then resynthesized in soluble form and purified by high-performance liquid chromatography (HPLC) for testing (Supplementary Figs. 4–12). The amino acid sequences of the eight self-assembling pentapeptides are FTISD, ITSVV, YFTEF, ISDNL, LDFPI, FAGFT, FGFDP, and FFVDF. Not unexpectedly, of the 40 amino acids in these eight pentapeptides, 50% are hydrophobic residues, predominated by Phe (11 Phe, 4 Ile, 3 Val, and 2 Leu). For the remaining 20 amino acids, six are acidic residues (5 Asp and 1 Glu) and seven are neutral and hydrophilic (4 Thr and 3 Ser). The rest are 2 Pro, 2 Gly, 1 Tyr, 1 Asn, and 1 Ala. All eight peptides have at least two hydrophobic residues. Six out of the eight peptides have one negatively charged residue (Asp or Glu). The remaining two peptides are neutral. […] For the Pro containing pentapeptides, LDFPI and FGFDP, the Pro residue, which promotes peptide turns, resides at the fourth and fifth positions, but not in the middle. Not unexpectedly, all the four randomly selected negative non-assembling peptides (RITTR, PLVKA, PFTTR, and QIMRW) have very different sequences, and contain at least one positive charged amino acid.
The OBOC pentapeptide libraries (19[5]) were built using Fmoc strategy SPPS (solid-phase peptide synthesis) (Supplementary Fig. 3). TentaGel S Resin (named N-beads with loading 0.31 mmol/g) was used as the solid phase support. The pentapeptide sequence of X1 X2 X3 X4 X5 was constructed in the library, in which X1−X5 represents either Ala, Asp, Glu, Phe, Gly, His, Ile, Lys, Leu, Met, Asn, Pro, Gln, Arg, Ser, Thr, Val, Trp, and Tyr residues. During the synthesis of OBOC library, solid support beads were mixed and split equally in each cycle, then different amino acids were added, separately, the process was repeated four times. The synthesis of peptides was used anhydrous DMF as solvent. The Fmoc group was removed by 20% (v/v) piperidine in DMF and the deprotection time was 10 min twice. During the coupling step, the HBTU (4 mM) and Fmoc-amino acid (4 mM) were dissolved in DMF containing NMM (0.4 mM). The coupling time was 50 min. Qualitative Fmoc deprotection and coupling were confirmed by ninhydrin test. All the above experiments were carried out in the solid phase peptide synthesis vessels with sieves in it. […]

[2] = tested on: HeLa cells; assay: Cell uptake efficiency by fluorescence of lysed cells; type: cell-based; conditions: HeLa cells incubated with peptides 4 h, fluorescence quantified
Protocol: and FGFDP entered lysosome and then escaped. The ISDNL escaped in 4 h, and FGFDP escaped between 1-2 h. Both ISDNL and FGFDP had capability of lysosomal escape, which may be useful for gene or nucleic acid delivery, as implied by the reviewer.
Figure R10. a. Time-dependent CLSM images for monitoring and quantitatively analyzing HeLa cells incubated with 50 μM pentapeptide nano-assembly of YFTEF, ISDNL, and FGFDP, b. corresponding co-localization analysis of experiment shown in “a”.
To confirm how efficient the peptides (YFTEF, ISDNL, and FGFDP) enter living cells, HeLa cells were incubated with peptides for 4 h, the cells were then lysed and fluorescence quantified to calculate the […]
Table R2. Cell uptake efficiency of peptides. […]
To elucidate the cell uptake pathways of pentapeptides, we quantified the fluorescence intensity of the HeLa cells after incubation with FITC-labeled nano-assembly of YFTEF, ISDNL, FAGFT, FGFDP, at 37 and 4 °C, respectively (3% of the peptide assembly were N-terminally labeled with FITC for tracking). There were nearly no uptake of pentapeptides by HeLa cells at 4 °C, which is consistent with mechanism of cell uptake by endocytosis. We have also examined the effects of cell uptake by various endocytosis inhibitors: amiloride (2 mM, inhibitor of endocytosis), M-β-CD (5 mM, inhibitor of caveolae-dependent endocytosis), and chlorpromazine (50 μM, inhibitor of clathrin-dependent endocytosis).
(1 picture or pasted object on this page, not shown here)

| Fluorescence (beads) [1] | Cell uptake efficiency [2] [%] | Substance |
| --- | --- | --- |
| On |  | FAGFT [self-assembling pentapeptide identified from OBOC library] |
| On | 2.2 | ISDNL [self-assembling pentapeptide identified from OBOC library] |
| On | 4.8 | FGFDP [self-assembling pentapeptide identified from OBOC library] |
| On | 3.9 | YFTEF [self-assembling pentapeptide identified from OBOC library] |
| On |  | LDFPI [self-assembling pentapeptide identified from OBOC library] |
| On |  | FTISD [self-assembling pentapeptide identified from OBOC library] |
| On |  | FFVDF [self-assembling pentapeptide identified from OBOC library, forms nanofibers] |
| On |  | ITSVV [self-assembling pentapeptide identified from OBOC library] |
